Data on five molecules can be found in patent US4902699A, “Oxime of 1, 2, 5, 6-tetrahydropyridine compounds their use as medicaments and the compositions containing them” (Roussel Uclaf, priority 1987, dated 1990).

The nature of one data set: Solubility. Format: physicochemical. The following applies: for Solubility in water: H2O.
A further data set is described as follows: Acute toxicity, oral. Also on record: species or system mice. The following applies: mouse, in vivo, mortality during 7 days.
Data set [1] concerns ileum isolated from guinea-pig. Nature of the data set: Test of ileum isolated from guinea-pig, agonist (contracting) activity. The following applies: Cavia porcellus; negative logarithm of the dose which produces 50% of the maximum effect; read-out: pD2 (converted). How it is done: Pieces of ileum are removed from guinea-pigs killed by decapitation. The isolated ileum is placed in 10 cm^3 of Tyrode solution at 37° C. and aerated with a mixture of oxygen (95%) and carbon dioxide gas (5%). The contractions due to the products are registered by means of a detector connected to a polygraph. The products to be tested are added at concentrations between 1.10^-3 M and 1.10^-8 M/l.
The products presenting a contracting effect are tested vis-a-vis atropine and hexamethonium in order to establish if the activity is of "muscarine" or "nicotine" type.
The agonist activity is expressed in pD2 (negative logarithm of the dose which produces 50% of the maximum effect).

A short description of another data set: Diarrhoeic activity. Also on record: species or system mice. The following applies: mouse, in vivo; oral route; dose which causes diarrhoea in 50% of the animals; read-out: DE50 (the source's name). The protocol:
The test is carried out on male mice (CD1 Charles Rivers) weighing […], after fasting for 6 hours. The product dissolved at 5% in methocel is administered by oral route by means of an oesophage probe.
Control animals receive only the excipient.
After treatment, the animals are placed separately in cages of which the base is covered with blotting paper, and they are put under observation for 30, 60, 120 and 180 minutes.
The sheets of absorbent paper are changed after each observation.
The consistency of the feces is evaluated according to the method of Randall and Baruth (Arch. Int. Pharmacodyn. 220, 94, 1976) according to the following scale of values.
1: feces slightly soft, with or without a damp halo
2: feces slightly soft, with a well defined circle of humidity.
3: feces soft with a large circle of humidity.
4: feces without consistency with a very large circle of humidity.
For each product, the dose is noted which causes diarrhoea in 50% of the animals according to the method of Miller and Tainter (Proc. Soc. Exp. Biol. Med., 57, 261, 1944).

For data set [2], the system named is male mice (CD1 Charles RAivers). Nature of the data set: Hypothermic activity. To be noted: Mus musculus, read-out: Effective dose (-1° C.). Format: in vivo. How it is done:
(§1) The test is carried out on male mice (CD1 Charles RAivers) weighing 25-30 g, having fasted for 6 hours.
The temperature of the body is noted by means of a thermocouple inserted about 1.5 cm in the rectum and connected to an electric temperature recorder.
The products are administered by oral or sub-cutaneous route and the temperatures are noted at the instant 0 and at 30 minutes, 1 hour, 2 hours and 2 and a half hours after treatment.
The degree of hypothermia is evaluated as the difference between the treated animals and the controls, and the dose necessary to reduce the body temperature by 1° C. is noted.

Data set [3] shares this test system. Nature of the data set: Variation of the body temperature (duration of action). Format: in vivo. The protocol:
as §1
The temperature of the body is noted by means of a thermocouple inserted about 1.5 cm in the rectum and connected to an electric temperature recorder. […]
The duration of action of the products is determined, using the doses able to reduce the temperature by 1° to 1.5° C.

Data set [4] has as its system central cholinergic system. The following applies: cited from earlier work.
The subject of data set [5] is patients having a memory defect. To be noted: injected by intravenous route; cited from earlier work.

Each structure is given as a SMILES string. Where a name gives a salt, the structure may show the parent alone. Read-outs that look alike come from different tables or passages of the source.

Description for Acute toxicity, oral: The test was carried out on male mice (CD1 Charles Rivers), of 22 to 24 g, having fasted for 16 hours. […] The mortality is noted during the 7 days following the treatment.

`CON=CC1=CCCN(OC)C1` [Example 2, Hydrochloride of the methyl ether of 1-methoxy-1,2,5,6-tetrahydropyridin-3-carboxaldehyde oxime]: in “Solubility”, the “Solubility in 2N HCl” value is listed as “Soluble”, the “Solubility in 2N NaOH” value is given as “Soluble” and the Solubility in water entry is listed as “Soluble”.
By LD50 is commonly meant the dose expected to kill half of the subjects tested. A high value points to lower toxicity. As for `C#CCON=CC1=CCCN(O)C1` [Example 4, Hydrochloride of the propargyl ether of 1-hydroxy-1,2,5,6-tetrahydropyridin-3-carboxaldehyde oxime], the LD50 at 168 h in “Acute toxicity, oral” came to 80 mg/kg. The EC50 in data set [1] is 5.75 µM. Besides, the ED50 in “Diarrhoeic activity” is 0.9 mg/kg. Moreover, the ED (-1 C) was determined as 0.48 mg/kg in data set [2] (O.R. (oral route)) and 0.49 mg/kg in data set [2] (SC.R (sub-cutaneous route)). Moreover, the “Variations of the body temperature” value in data set [3] (os, 0.75 mg/kg, 30 min) is -1.6 °C; in data set [3] (os, 0.75 mg/kg, 60 min) it was -1.0 °C; in data set [3] (os, 0.75 mg/kg, 180 min), -0.1 °C; in data set [3] (sc, 0.75 mg/kg, 30 min), -1.4 °C; in data set [3] (sc, 0.75 mg/kg, 60 min), -1.1 °C; in data set [3] (sc, 0.75 mg/kg, 120 min), -0.1 °C. Also, the “Solubility in 2N HCl” value in the data set “Solubility” is “Soluble”. Moreover, the “Solubility in 2N NaOH” value in the data set “Solubility” is on record as “Soluble”. The Solubility in water result in “Solubility” is “Soluble”.
Molecule `CON=CC1=CCCN(OC(C)=O)C1` [Example 3, Hydrochloride of the methyl ether of 1-acetoxy-1,2,5,6-tetrahydropyridin-3-carboxaldehyde oxime] had an LD50 at 168 h in “Acute toxicity, oral” of 100 mg/kg. Besides, in data set [1], the EC50 was 12.6 µM. In addition, the ED50 in “Diarrhoeic activity” was 0.5 mg/kg. In addition, the ED (-1 C) in data set [2] (O.R. (oral route)) was 0.22 mg/kg; in data set [2] (SC.R (sub-cutaneous route)), 0.2 mg/kg. In addition, the “Variations of the body temperature” value in data set [3] (os, 0.25 mg/kg, 30 min) is -1.2 °C; in data set [3] (os, 0.25 mg/kg, 60 min) it was -0.7 °C; in data set [3] (os, 0.25 mg/kg, 120 min) it was “+0.1 °C”; in data set [3] (os, 0.25 mg/kg, 180 min), “+0.1 °C”; in data set [3] (sc, 0.25 mg/kg, 30 min), -1.2 °C; in data set [3] (sc, 0.25 mg/kg, 60 min) it was -0.8 °C. In addition, the “Variations of the body temperature” value in data set [3] (sc, 0.25 mg/kg, 120 min) was “+0.1 °C”; in data set [3] (sc, 0.25 mg/kg, 180 min) it was “+0.1 °C”. Also, the “Solubility in 2N HCl” value in “Solubility” was “soluble”. Also, the “Solubility in 2N NaOH” value in the data set “Solubility” was “insoluble”. For the same molecule, in the data set “Solubility”, the Solubility in water entry was “insoluble”.
Take `COC(=O)C1=CCCN(C)C1` [arecoline]: in data set [1], the EC50 is 0.331 µM. The ED50 in the data set “Diarrhoeic activity” amounted to 35 mg/kg. The duration of action entry in data set [4] (in vivo) is reported as “short duration of action”. In addition, the “activity by oral route” value in data set [4] (oral route) is given as “very weak activity”. Further, in data set [5], the “effect on patients having a memory defect” value is given as “positive effect”.
Molecule `CON=CC1=CCCN(O)C1` [Example 1, Hydrochloride of the methyl ether of 1-hydroxy-1,2,5,6-tetrahydropyridin-3-carboxaldehyde oxime] registered an LD50 at 168 h in “Acute toxicity, oral” of 60 mg/kg. Besides, in data set [1], the EC50 was 4.17 µM. Besides, the ED50 in “Diarrhoeic activity” came to 0.5 mg/kg. Moreover, the ED (-1 C) was determined as 0.19 mg/kg in data set [2] (O.R. (oral route)) and 0.2 mg/kg in data set [2] (SC.R (sub-cutaneous route)). The “Variations of the body temperature” value is -1.4 °C in data set [3] (os, 0.25 mg/kg, 30 min); -1.2 °C in data set [3] (os, 0.25 mg/kg, 60 min); -0.1 °C in data set [3] (os, 0.25 mg/kg, 120 min); -0.1 °C in data set [3] (os, 0.25 mg/kg, 180 min); -1.4 °C in data set [3] (sc, 0.25 mg/kg, 30 min); -1.1 °C in data set [3] (sc, 0.25 mg/kg, 60 min). The “Variations of the body temperature” value in data set [3] (sc, 0.25 mg/kg, 120 min) is -0.1 °C; in data set [3] (sc, 0.25 mg/kg, 180 min) it was -0.1 °C.
